Data published in patent US20120115724A1, “METHOD OF CONTROLLING UNDESIRED VEGETATION” (SYNGENTA CROP PROTECTION LLC, priority 2009, published 2012).

Tests used:
Assay type in all cases: in vivo
[1] = tested on: CHEAL Chenopodium album; experiment: Post-emergence crop and weed test (Example 15); details: 360 h, after 15 days, read-out: Percentage damage CHEAL
In short: (§1)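 Plants grown 14 days in glasshouse pots (22/16 °C day/night, 16 h light, 65% humidity) were sprayed post-emergence with compound formulated as a 5% stock in acetone/Emulsogen EL/NMP/DPG-monoethyl ether, diluted in water with 0.2% X-77. Damage was scored after 15 days (0 = none, 100 = total).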

[2] = tested on: KCHSC Kochia scoparia; experiment: Pre-emergence crop and weed test (Example 16); details: after 20 days
Description: (§2) Seeds of crop and representative weed species were sown in standard soil in pots. After cultivation for 1 day under controlled conditions in a glasshouse (at 22/16° C., day/night; 16 hours light; 65% humidity), the plants were sprayed. The spray solution was prepared by dissolving the technical active ingredient in acetone containing 10.56 wt % Emulsogen EL, 42.22 wt % N-methylpyrrolidone and 2.22 wt % DPG-monoethyl ether to give a 5% stock solution. This was then diluted with water containing 0.2% (v/v) of the adjuvant X-77 to give the desired treatment concentration.
(§3) The test plants were then grown on under controlled conditions in a glasshouse (at 22/16° C., day/night; 16 hours light; 65% humidity) and watered twice daily. After 20 days the test was evaluated (100=total damage to plant; 0=no damage to plant).
(§4) Species as for Post-Emergence Test.

[3] = tested on: AMARE Amaranthus retroflexus; experiment: Pre-emergence crop and weed test (Example 16); details: after 20 days
Description: as §2, §3, §4

[4] = tested on: POLCO Polygonum convolvulus; experiment: Pre-emergence crop and weed test (Example 16); details: after 20 days
Description: as §2, §3, §4

[5] = tested on: XANST Xanthium strumarium; experiment: Pre-emergence crop and weed test (Example 16); details: after 20 days
Description: as §2, §3, §4

[6] = tested on: GALAP Galium aparine; experiment: Pre-emergence crop and weed test (Example 16); details: after 20 days
Description: as §2, §3, §4

[7] = tested on: SIDSP Sida spinosa; experiment: Pre-emergence crop and weed test (Example 16); details: after 20 days
Description: as §2, §3, §4

[8] = tested on: CHEAL Chenopodium album; experiment: Pre-emergence crop and weed test (Example 16); details: after 20 days
Description: as §2, §3, §4

[9] = tested on: EPHHL Euphorbia heterophylla; experiment: Pre-emergence crop and weed test (Example 16); details: after 20 days
Description: as §2, §3, §4

[10] = tested on: SINAR Sinapis arvensis; experiment: Pre-emergence crop and weed test (Example 16); details: after 20 days
Description: as §2, §3, §4

[11] = tested on: IPOHE Ipomoea hederacea; experiment: Pre-emergence crop and weed test (Example 16); details: after 20 days
Description: as §2, §3, §4

[12] = tested on: ABUTH Abutilon theophrasti; experiment: Pre-emergence crop and weed test (Example 16); details: after 20 days
Description: as §2, §3, §4

[13] = tested on: GLXMA Soybean; experiment: Pre-emergence crop and weed test (Example 16); details: after 20 days
Description: as §2, §3, §4

[14] = tested on: Ipomea hederaceae (IPOHE); experiment: Pre-emergence biological efficacy (Example 13); details: Ipomoea hederacea, 312 h; pre-emergence, 1,000 g/ha, after 13 days; read-out: Percentage damage IPOHE
In short: (§5)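 Phytotoxicity was rated on a 0 (no damage) to 100 (total damage) scale 13 days after treatment. Test compound was sprayed at 250 or 1000 g/ha onto soil-sown pots one day after sowing, using acetone/water (50:50) with 0.5% Tween 20 diluted in water.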

[15] = tested on: Alopecurus myosuroides (ALOMY); experiment: Pre-emergence biological efficacy (Example 13); details: Alopecurus myosuroides, 312 h; pre-emergence, 1,000 g/ha, after 13 days; read-out: Percentage damage ALOMY
In short: as §5

[16] = tested on: Solanum nigrum (SOLNI); experiment: Pre-emergence biological efficacy (Example 13); details: Solanum nigrum, 312 h; pre-emergence, 1,000 g/ha, after 13 days; read-out: Percentage damage SOLNI
In short: as §5

[17] = tested on: Echinochloa crus-galli (ECHCG); experiment: Pre-emergence biological efficacy (Example 13); details: Echinochloa crus-galli, 312 h; pre-emergence, 1,000 g/ha, after 13 days; read-out: Percentage damage ECHCG
In short: as §5

[18] = tested on: GALAP Galium aparine; experiment: Post-emergence crop and weed test (Example 15); details: 360 h, after 15 days, read-out: Percentage damage GALAP
In short: as §1

| SMILES | Percentage damage AMARE ([3]; 125 g/ha) [%] | Percentage damage POLCO ([4]; 125 g/ha) [%] | Percentage damage XANST ([5]; 125 g/ha) [%] | Percentage damage GALAP ([6]; 125 g/ha) [%] | Percentage damage SIDSP ([7]; 125 g/ha) [%] | Percentage damage CHEAL ([8]; 125 g/ha) [%] | Percentage damage EPHHL ([9]; 125 g/ha) [%] | Percentage damage SINAR ([10]; 125 g/ha) [%] | Percentage damage IPOHE ([11]; 125 g/ha) [%] | Percentage damage ABUTH ([12]; 125 g/ha) [%] | Percentage damage GLXMA ([13]; 125 g/ha) [%] | pest or weed control at 1000 g/ha [14] [%] | pest or weed control at 1000 g/ha [15] [%] | pest or weed control at 1000 g/ha [16] [%] | pest or weed control at 1000 g/ha [17] [%] | also measured |
| --- | --- | --- | --- | --- | --- | --- | --- | --- | --- | --- | --- | --- | --- | --- | --- | --- |
| C/C=C\c1c(N)nc(-c2ccc(Cl)c(N(C)C)c2F)nc1C(=O)OC [Compound 5, (Z)-4-Amino-2-(4-chloro-3-dimethylamino-2-fluorophenyl)-6-methoxy-carbonyl-5-(prop-1-enyl)-pyrimidine] | 90 | 0 | 40 | 100 | 90 | 100 | 100 | 40 | 50 | 70 | 0 | 20 | 30 | 60 | 30 | pest or weed control at 30 g/ha ([1]; 30 g/ha): 80%; Percentage damage KCHSC ([2]; 125 g/ha): 30% |
| C/C=C\c1c(N)nc(-c2ccc(Cl)c(OC)c2F)nc1C(=O)OC [Compound 4, (Z)-4-Amino-2-(4-chloro-2-fluoro-3-methoxy-phenyl)-6-methoxy-carbonyl-5-(prop-1-enyl)-pyrimidine] | 100 | 20 | 30 | 80 | 100 | 40 | 100 | 50 | 50 | 100 | 10 | 100 | 80 | 100 | 90 | pest or weed control at 8 g/ha ([18]; 8 g/ha): 30% |
| C/C=C/c1c(N)nc(-c2ccc(Cl)c(OC)c2F)nc1C(=O)OC [Compound 3, (E)-4-Amino-2-(4-chloro-2-fluoro-3-methoxy-phenyl)-6-methoxy-carbonyl-5-(prop-1-enyl)-pyrimidine] | – | – | – | – | – | – | – | – | – | – | – | 90 | 90 | 80 | 90 | pest or weed control at 125 g/ha ([18]; 125 g/ha): 70%; pest or weed control at 125 g/ha ([1]; 125 g/ha): 90%; Percentage damage KCHSC ([2]; 30 g/ha): 100%; Percentage damage AMARE ([3]; 30 g/ha): 80%; Percentage damage POLCO ([4]; 30 g/ha): 50%; Percentage damage XANST ([5]; 30 g/ha): 10%; Percentage damage GALAP ([6]; 30 g/ha): 100%; Percentage damage SIDSP ([7]; 30 g/ha): 90%; Percentage damage CHEAL ([8]; 30 g/ha): 100%; Percentage damage EPHHL ([9]; 30 g/ha): 100%; Percentage damage SINAR ([10]; 30 g/ha): 40%; Percentage damage IPOHE ([11]; 30 g/ha): 0%; Percentage damage ABUTH ([12]; 30 g/ha): 30%; Percentage damage GLXMA ([13]; 30 g/ha): 0% |
